Experiments:
human MALT-1 protein = human MALT-1 protein (Homo sapiens (Human), UniProt Q9UDY8); experiment: MALT-1 Biochemical Assay (Quench-FRET enzyme assay); conditions: human MALT-1 6 nM, substrate 2 μM, 40 min preincubation
From the text: A Quenched Fluorescence Resonance Energy Transfer (Quench-FRET) enzyme assay was used to test the ability of exemplary MALT-1 inhibitors Example 1 to Example 39 to inhibit the cleavage of a MALT1 specific quenched fluorescent substrate of sequence [TAMRA-PEG2-Leu-Val-Ser-Arg-Gly-Ala-Ala-Ser-PEG2-K(QSY7) by human MALT-1 protein; where TAMRA is 6-carboxytetramethylrhodamine, PEG2 is 2-(2-(2-aminoethoxy)ethoxyamide linker, QSY7 is a non-fluorescent quenching dye (Thermo-Fisher catalog #Q10193). The assay was performed by pre-dispensing compounds into 384 well Proxiplates™ (PE 6008289). Human MALT-1 (6 nM) was prepared using the assay buffer (25 mM HEPES pH 7.5, 1 mM ethylenediaminetetraacetic acid, 0.8 M sodium citrate, 0.005% Bovine serum albumin (BSA), 2 mM dithiothreitol (DTT)) and added to the compound plates. The plates were incubated 40 minutes at room temperature. The reaction was carried out by adding the substrate (2 μM) to the plates and incubating for 60 minutes at room temperature. A fluorescence readout was then measured using a PE EnVision® reader (Ex.535/Em.590). […] EC50 is defined as the half maximal effective concentration of compound to inhibit MALT-1 protease activity.

OCI-LY3 IL6 = experiment: MALT-1 Cell IL-6 AlphaLISA Assay; format: cell-based; conditions: Homo sapiens; OCI-LY3 cells, 48 hours incubation; read-out: OCI-LY3 IL6 48 hour Inhibition EC50
Method: The following MALT-1 Cell Interleukin-6 (IL-6) AlphaLISA assay was conducted using a Perkin Elmer® IL-6 AlphaLISA® detection kit (PE AL223). The IL-6 detection assay is a homogeneous immunoassay that detects human IL-6 present in the cell culture medium in the MALT-1 dependent human ABC-DLBCL cell line, OCI-LY3. Compounds were pre-dispensed into Black 384w microtiter plates (Greiner, 781090) from 30 μM to 1.5 nM. Viable OCI-LY3 cells were then seeded on top of compounds at a seeding density of 50,000 cells/mL. Plates were then placed into 37° C. incubators for 48 hours. After 48 hours incubation, 2 μL of cell medium from each well was transferred into white ProxiPlates™ (PE 6008289). A fresh mix of AlphaLISA Acceptor beads (10 μg/mL) and Biotinylated IL-6 Antibody (1 nM) was made in AlphaLISA Immunoassay buffer and added to all wells (4 μL). The plates were incubated for 60 minutes at room temperature. Streptavidin donor beads (40 μg/mL) were prepared using the assay buffer and added to all wells (5 The plates were incubated for 30 minutes at room temperature and read using PE EnVision® reader. Results are shown in Table 3.

CYP 3A4 mRNA = experiment: CYP3A4 Induction Assay (qPCR, human hepatocytes); format: in vitro ADME; conditions: 10 μM compound; for CYP3A4 % of positive control (%): relative to rifampicin 10 μM
Method: (§1) CYP induction by compounds of the Examples was evaluated in vitro by determining the expression levels of CYP 3A4 mRNA using the qPCR (quantitative polymerase chain reaction) assay. On day one, cryopreserved human hepatocytes were thawed in prewarmed (37° C.) thawing medium (cryopreserved hepatocyte recovery medium, Gibco™ CM 7000; Thermo Fisher Scientific), centrifuged (1000 g for 10 minutes) and resuspended in plating medium (Gibco™ CM3000—Williams Medium E supplemented with hepatocytes plating supplement pak-serum containing; Thermo Fisher Scientific). Cells were counted by trypan blue exclusion using a hemocytometer and adjusted to a cell density of […]. Thereafter, […] of cell suspension was aliquoted per well in a 96-well plate, resulting in 60,000 cells/well. Plates were shaken in the north-south and east-west direction during plating. Plated cells were incubated at 37° C/5% CO2 in a humidified cell culture incubator for 4-6 hours. During this time, incubation medium (Gibco™ CM4000, cell maintenance supplement pack; Thermo Fisher Scientific) was mixed with Gibco™ Geltrex™ (Thermo Fischer Scientific) at the appropriate GeltrexTM protein concentration. Following recovery, medium was removed from cells and replaced with freshly prepared incubation medium. Cells were incubated overnight in a cell culture incubator (37° C./5% CO2).
(§2) The next day the incubation medium was prepared by combining the hepatocyte maintenance supplement pack with Williams Medium E. The medium was warmed to 37° C. 1000× dimethyl sulfoxide compound stocks of the compounds of the Examples were prepared to the desired concentrations. 10 mM compound stocks in dimethyl sulfoxide were diluted (1 μL to 1 mL CM4000; final concentration=10 μM). Overlay medium was aspirated and […] dose solution added to the desired labeled 96 well plate. Cells were then dosed with compound (10 μM) and prototypical induces at the targeted concentrations either 50 i.tM for omeprazole (Sigma 0104/lotBCBF-2161V) or 10 i.tM for rifampicin (Sigma R3501/lot 011M1159V). A negative control, probenecid, was dosed at 10 i.tM (Sigma P8761/lot 013K0148).
(§3) On day 3, RNA isolation was performed. All surfaces were cleaned using RNase RNAy. Total RNA was isolated using MagMAX Express 96 RNA Isolation System (Life Technologies, AM1830). Briefly, hepatocytes were washed once with 1X PBS (phosphate buffered saline). 145 μL of RNA Lysis Buffer was added to each well and each well was mixed by pipetting several times. Lysate was then transferred to a well of a 96 well Binding Plate. Samples were then mixed with 20 μL magnetic beads coming from the kit. RNA bound to beads was then captured by the magnetic tip manifold and beads were washed with the wash solution. Samples were treated with TURBOTmDNase. After TURBOTmDNase treatment, RNA was rebound to beads and washed with the provided wash buffer an additional two times. Beads are then dried, and RNA was eluted with 50 μL elution buffer. The eluted mRNA was transferred from the wells to RNase-free sealable microtiter plates and stored at -80° C. until use.
(§4) Following mRNA isolation, reverse transcription (RT) reactions were performed using TaqmanTm Reverse Transcription Reagents (ThermoFisher Scientific). RT master mix was prepared by mixing 2.5 μL 10× RT buffer, 5.5 μL 25 mM MgCl2, 5μL deoxyNTP mixture, 1.25 50 mM random hexamers, 0.5 μL 2× RNAse inhibitor, 0.625 μL multiscript RTase (50U/μL) and 0.625 μL water. An aliquot of RT mix (16 μL) and an aliquot of mRNA sample (9 μL) was added to each well of a 96-well plate. The SimpliAmpTM Thermal cycler PCR System VIIA7 from Applied Biosystems was used for reverse transcription under the following conditions: segment 1: 25° C. for 10 minutes; segment 2: 45° C. for 45 minutes; segment 3: 95° C. for 5 minutes; and segment 4: 4° C. hold; with 1 cycle for each segment. […]

CYP3A4 mRNA = experiment: CYP3A4 Induction Assay (qPCR, human hepatocytes); format: in vitro ADME; conditions: cryopreserved human hepatocytes (plated), 10 μM compound, mRNA fold over vehicle (0.1% DMSO)
Method: as §1, §2, §3, §4

male Sprague-Dawley rats = experiment: Cardiovascular Assay in anesthetized rats; format: in vivo; conditions: rat; for HR (%) / MAP (%) / dP/dt@50 (%): change from vehicle; for Drug (μg/mL SEM): plasma at end of infusion
Method: The following cardiovascular assay was conducted using male Sprague-Dawley rats that were anesthetized with Inactin (thiobutabarbital), instrumented (catheterized both femoral artery and vein; catheterize left ventricular) and allowed to stabilize. Following a 30-minute baseline period, each compound was infused at low, medium, and high doses/30 minutes. Plasma samples were taken at the end of each dose infusion. If, at any point, the mean arterial pressure (MAP) of an animal decreased below 70 mmHg, the infusion was immediately stopped, a final blood sample was taken, and hemodynamic data for that animal was removed from the group average for all subsequent time points. A 15% change from vehicle for MAP or heart rate (HR), respectively, is considered biologically relevant. A 20% change from vehicle for dP/dt@50 is considered biologically relevant.

human MALT-1 protein, sequence (Q9UDY8 whole entry): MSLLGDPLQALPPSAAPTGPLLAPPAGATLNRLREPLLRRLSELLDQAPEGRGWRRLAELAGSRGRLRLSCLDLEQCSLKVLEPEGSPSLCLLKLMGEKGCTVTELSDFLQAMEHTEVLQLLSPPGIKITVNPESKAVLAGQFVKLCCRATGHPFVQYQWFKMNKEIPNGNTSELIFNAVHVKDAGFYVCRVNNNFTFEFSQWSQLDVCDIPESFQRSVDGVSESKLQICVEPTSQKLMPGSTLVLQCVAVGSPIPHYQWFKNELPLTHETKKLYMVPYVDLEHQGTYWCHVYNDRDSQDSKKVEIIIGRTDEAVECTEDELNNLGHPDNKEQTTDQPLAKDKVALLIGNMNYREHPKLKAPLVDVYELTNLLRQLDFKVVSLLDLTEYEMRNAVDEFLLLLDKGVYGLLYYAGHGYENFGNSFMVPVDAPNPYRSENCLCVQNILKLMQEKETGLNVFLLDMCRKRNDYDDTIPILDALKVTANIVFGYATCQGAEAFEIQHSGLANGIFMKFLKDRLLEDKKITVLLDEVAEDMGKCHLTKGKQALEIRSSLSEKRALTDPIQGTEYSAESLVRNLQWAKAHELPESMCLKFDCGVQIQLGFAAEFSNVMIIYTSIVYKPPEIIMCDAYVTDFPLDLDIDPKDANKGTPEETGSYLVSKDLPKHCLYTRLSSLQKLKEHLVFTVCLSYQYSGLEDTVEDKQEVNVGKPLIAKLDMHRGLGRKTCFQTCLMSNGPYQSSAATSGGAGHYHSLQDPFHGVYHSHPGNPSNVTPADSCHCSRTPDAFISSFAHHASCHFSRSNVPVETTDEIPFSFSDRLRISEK

Row | EC50 (human MALT-1 protein) [nM] | EC50 (OCI-LY3 IL6) [nM] | CYP3A4 % of positive control (%) (CYP 3A4 mRNA) | fold induction at 1 day, 10 µM (CYP3A4 mRNA) | Structure (SMILES) | also measured
1 | 198 | 230 | (84.8) % | 8.24 | CO[C@@H](C)c1c(Nc2ccc([C@H](N(C)C(=O)C3CCS(=O)(=O)CC3)C(F)(F)F)cc2F)cnc2sc(C)nc12 (single isomer, unassigned) [Example 10] | –
2 | 92 | 580 | – | – | CO[C@H](c1c(Nc2ccc([C@H](N(C)C(=O)C3CCS(=O)(=O)CC3)C(F)(F)F)cc2F)cnc2sc(C)nc12)C(F)F (single isomer, unassigned) [Example 17] | –
3 | 156 | 190 | (19.9) % | 2.72 | Cc1nc2c([C@@H](C)C(F)(F)F)c(Nc3ccc([C@H](N(C)C(=O)C4CCS(=O)(=O)CC4)C(F)(F)F)cc3)cnc2s1 (single isomer, unassigned) [Example 38] | –
4 | 83 | 40 | (14.9) % | 2.29 | Cc1nc2c([C@H](C)C(F)(F)F)c(Nc3ccc([C@H](N(C)C(=O)C4CCS(=O)(=O)CC4)C(F)(F)F)cc3)cnc2s1 (single isomer, unassigned) [Example 39] | –
5 | – | – | – | – | CO[C@@H](C)c1c(Nc2ccc([C@H](N(C)C(=O)C3CCS(=O)(=O)CC3)C(F)(F)F)cc2)cnc2cc(Cl)nn12 [Comparative Example A, N-{(1S)-1-[4-({2-chloro-7-[(1 S)-1-methoxyethyl]pyrazolo [1,5-a]pyrimidin-6-yl}amino)phenyl]-2,2,2-trifluoroethyl}-N-methyl-1,1-dioxo-1λ^6-thiane-4-carboxamide, reference compound] | HR (%) (male Sprague-Dawley rats; dose 3 mg/kg): −7%; MAP (%) (male Sprague-Dawley rats; dose 3 mg/kg): −10%; dP/dt@50 (%) (male Sprague-Dawley rats; dose 3 mg/kg): −4%; HR (%) (male Sprague-Dawley rats; dose 10 mg/kg): −11%; MAP (%) (male Sprague-Dawley rats; dose 10 mg/kg): −14%; dP/dt@50 (%) (male Sprague-Dawley rats; dose 10 mg/kg): −7%; HR (%) (male Sprague-Dawley rats; dose 30 mg/kg): −18%; MAP (%) (male Sprague-Dawley rats; dose 30 mg/kg): −22%; dP/dt@50 (%) (male Sprague-Dawley rats; dose 30 mg/kg): −6%; Drug (μg/mL SEM) (male Sprague-Dawley rats; dose 3 mg/kg): 1.45 ± 0.06 µg/mL; Drug (μg/mL SEM) (male Sprague-Dawley rats; dose 10 mg/kg): 5.15 ± 0.32 µg/mL; Drug (μg/mL SEM) (male Sprague-Dawley rats; dose 30 mg/kg): 12.91 ± 1.71 µg/mL
6 | – | – | (25.3) % | – | CO[C@@H](C)c1c(NC(=O)Nc2cnc(-n3nccn3)c(C(F)(F)F)c2)cnc2sc(C)nc12 [Comparative Example B, reference compound] | CYP3A4 Fold induction (CYP 3A4 mRNA; mRNA fold over vehicle (0.1% DMSO)): 2.32
7 | 190 | 110 | (2.19) % | 1.13 | CO[C@H](c1c(Nc2ccc([C@H](N(C)C(=O)C3CCS(=O)(=O)CC3)C(F)(F)F)cc2)cnc2sc(C)nc12)C(F)(F)F [Example 2, N-methyl-1,1-dioxo-N-{(1S)-2,2,2-trifluoro-1-[4-({2-methyl-7-[(1R)-2,2,2-trifluoro-1-methoxyethyl][1,3]thiazolo[5,4-b]pyridin-6-yl}amino)phenyl]ethyl}-1λ^6-thiane-4-carboxamide] | –
8 | 158 | 1330 | (16.1) % | 1.98 | CO[C@@H](C)c1c(Nc2ccc([C@@H](C(F)F)N(C)C(=O)C3CCS(=O)(=O)CC3)cc2)cnc2sc(C)nc12 [Example 4, N-{(1S)-2,2-difluoro-1-[4-({7-[(1S)-1-methoxyethyl]-2-methyl[1,3]thiazolo[5,4-b]pyridin-6-y1}amino)phenyl]ethyl} -N-methyl-1,1-dioxo-1λ^6-thiane-4-carboxamide] | –
9 | 77 | 340 | (15.3) % | 1.77 | CO[C@@H](c1c(Nc2ccc([C@H](N(C)C(=O)C3CCS(=O)(=O)CC3)C(F)(F)F)cc2)cnc2sc(C)nc12)C(F)F [Example 5, N-{(1S)-1-[4-({7-[(1S)-2,2-difluoro-l-methoxyethyl]-2-methyl[1,3]thiazolo [5,4-b]pyridin-6-yl}amino)phenyl]-2,2,2-trifluoroethyl}-N-methyl-1,1-dioxo-1λ^6-thiane-4-carboxamide] | –
10 | 146 | 210 | (5.46) % | 1.4 | CO[C@H](c1c(Nc2ccc([C@@H](C(F)F)N(C)C(=O)C3CCS(=O)(=O)CC3)cc2)cnc2sc(C)nc12)C(F)F [Example 6, N-{(1S)-1-[4-({7-[(1R)-2,2-difluoro-l-methoxyethyl]-2-methyl[1,3]thiazolo[5,4-b]pyridin-6-y1}amino)phenyl]-2,2-difluoroethyl}-N-methyl-1,1-dioxo-1λ^6-thiane-4-carboxamide] | –
11 | 106 | 470 | – | – | Cc1nc2c(C(C)C(F)F)c(Nc3ccc([C@H](N(C)C(=O)C4CCS(=O)(=O)CC4)C(F)(F)F)cc3)cnc2s1 (stereo partly drawn) [Example 16, N-R[(1S)-1-(4-{ [7-(1,1-difluoropropan-2-yl)-2-methyl[1,3]thiazolo[5,4-b]pyridin-6-yl]amino}phenyl)-2,2,2-trifluoroethyl]-N-methyl-1,1-dioxo-1λ^6-thiane-4-carboxamide] | –
